Common to all, as to format: functional, cell-based
For test [1], the system named is P388. In words: Cytotoxicity against mouse P388 cells.
For test [2], the system named is L1210. Put plainly: Cytotoxicity against mouse L1210 cells.
In test [3] the test system is KB. Put plainly: Cytotoxicity against human KB cells.

Consider two molecules from ChEMBL document CHEMBL1151802, “Calyciphyllines N-P, alkaloids from Daphniphyllum calycinum” (J Nat Prod, 2009).

Turning to `COC(=O)[C@@H]1C[C@]23C4=NC[C@@H](C)[C@]45CC[C@@]2(C)[C@H](CCC2=C3[C@@H]1CC2)[C@H]5O` [CALYCIPHYLLINE N], the IC50 was greater than 55 µg/mL in test [1], greater than 5 µg/mL in test [2] and greater than 5 µg/mL in test [3].
`COC(=O)CC[C@@]12[C@@H]3NC4C([C@@H](O)C[C@@]45CCC[C@H]51)[C@]2(C)CC[C@@H]3C(C)C` [CALYCIPHYLLINE O]: the IC50 is greater than 55 µg/mL in test [1], greater than 5 µg/mL in test [2] and greater than 5 µg/mL in test [3].
